Measurements from ChEMBL document CHEMBL1156355, “Phenolic compounds from Miconia myriantha inhibiting Candida aspartic proteases” (J Nat Prod, 2001).

How the values were obtained:
[1] = Inhibition of Candida albicans ATCC 10231 secreted aspartic protease
[2] = Inhibition of pepsin

Row | IC50 [1] [µM] | IC50 [2] [µM] | Structure (SMILES)
1 | 8.4 | 66.6 | COc1ccc([C@@H]2CC(=O)c3c(O)c(C)c(O[C@@H]4O[C@@H]5COC(=O)c6cc(O)c(O)c(O)c6-c6c(cc(O)c(O)c6O)C(=O)O[C@H]5[C@H](O)[C@H]4O)c(C)c3O2)cc1
2 | 0.016 | 0.31 | CC(C)CC(=O)N[C@H](C(=O)N[C@H](C(=O)N[C@@H](CC(C)C)[C@@H](O)CC(=O)N[C@@H](C)C(=O)N[C@@H](CC(C)C)[C@@H](O)CC(=O)O)C(C)C)C(C)C [PEPSTATIN]
3 | 10.5 | 37.1 | O=c1oc2c(O)c(O)cc3c(=O)oc4c(O)c(O)cc1c4c23 [ELLAGIC ACID]
